Laboratory results published in US11299492B2, “JAK kinase inhibitor compounds for treatment of respiratory disease” (THERAVANCE BIOPHARMA R&D IP, LLC, priority 2015, dated 2022).
One block for each compound: values may come before it.

Experiments:
[1] = system: IL-13 induced STAT6 phosphorylation in BEAS-2B human lung epithelial cells; experiment: AlphaScreen JAK1 cellular potency assay (BEAS-2B); assay type: cell-based; conditions: for BEAS-2B pIC50: IL-13 induced STAT6 phosphorylation, BEAS-2B cells; for fold less potent than the corresponding compound of the invention in the BEAS-2B cellular assay: C-1 vs Ex 1, C-2 vs Ex 7, C-3 vs Ex 13, C-4 vs Ex 6
[2] = Pharmacokinetics in plasma and lung in mouse; assay type: in vivo; conditions: oral aspiration, lung AUC (μg hr/g) / plasma AUC (μg hr/mL)
Method: Plasma and lung levels of test compounds and ratios thereof were determined in the following manner. BALB/c mice from Charles River Laboratories were used in the assay. Test compounds were individually formulated in 20% propylene glycol in pH 4 citrate buffer at a concentration of 0.2 mg/mL and 50 uL of the dosing solution was introduced into the trachea of a mouse by oral aspiration. At various time points (typically 0.167, 2, 6, 24 hr) post dosing, blood samples were removed via cardiac puncture and intact lungs were excised from the mice. Blood samples were centrifuged (Eppendorf centrifuge, 5804R) for 4 minutes at approximately 12,000 rpm at 4° C. to collect plasma. Lungs were padded dry, weighed, and homogenized at a dilution of 1:3 in sterile water. Plasma and lung levels of test compound were determined by LC-MS analysis against analytical standards constructed into a standard curve in the test matrix. A lung to plasma ratio was determined as the ratio of the lung AUC in μg hr/g to the plasma AUC in μg hr/mL, where AUC is conventionally defined as the area under the curve of test compound concentration vs. time.

[3] = system: IL-13 induced pSTAT6 induction in lung tissue; experiment: Murine model of IL-13 induced pSTAT6 induction in lung tissue; assay type: in vivo; conditions: mouse lung; for lung concentration smaller than that of the corresponding compound of the invention by a factor: pharmacodynamic assay, C-1 vs Ex 1, C-2 vs Ex 7, C-3 vs Ex 13, C-4 vs Ex 6; for pSTAT6 inhibition in the pharmacodynamic assay: IL-13 challenge
Method: I1-13 is an important cytokine underlying the pathophysiology of asthma (Kudlacz et al. Eur. J Pharmacol, 2008, 582, 154-161). IL-13 binds to cell surface receptors activating members of the Janus family of kinases (JAK) which then phosphorylate STAT6 and subsequently activates further transcription pathways. In the described model, a dose of IL-13 was delivered locally into the lungs of mice to induce the phosphorylation of STAT6 (pSTAT6) which is then measured as the endpoint.
Adult balb/c mice from Harlan were used in the assay. On the day of study, animals were lightly anesthetized with isoflurane and administered either vehicle or test compound (0.5 mg/mL, 50 μL total volume over several breaths) via oral aspiration. Animals were placed in lateral recumbency post dose and monitored for full recovery from anesthesia before being returned to their home cage. Four hours later, animals were once again briefly anesthetized and challenged with either vehicle or IL-13 ([…] total dose delivered, 50 μL total volume) via oral aspiration before being monitored for recovery from anesthesia and returned to their home cage. One hour after vehicle or IL-13 administration, lungs were collected for both pSTAT6 detection using an anti-pSTAT6 ELISA (rabbit mAb capture/coating antibody; mouse mAb detection/report antibody: anti-pSTAT6-pY641; secondary antibody: anti-mouse IgG-HRP) and analyzed for total drug concentration as described above in Assay 4.
Selected compounds of the invention were tested in the assay. Activity in the model is evidenced by a decrease in the level of pSTAT6 present in the lungs of treated animals at 5 hours compared to the vehicle treated, IL-13 challenged control animals. The difference between the control animals which were vehicle-treated, IL-13 challenged and the control animals which were vehicle-treated, vehicle challenged dictated the 0% and 100% inhibitory effect, respectively, in any given experiment.

[4] = Dynamic moisture sorption assessment; assay type: physicochemical
Method: Dynamic moisture sorption (DMS) measurement was performed using a VTI atmospheric microbalance, SGA-100 system (VTI Corp., Hialeah, Fla. 33016). A weighed sample was used and the humidity was lowest possible value (close to 0% RH) at the start of the analysis. The DMS analysis consisted of an initial drying step (˜0% RH) for 120 minutes, followed by two cycles of sorption and desorption with a scan rate of 5% RH/step over the humidity range of 5% RH to 90% RH. The DMS run was performed isothermally at 25° C.

Structure (SMILES): CCc1cc(O)c(F)cc1-c1ccc2c(-c3nc4c([nH]3)CCN(C3CN(CCC#N)C3)C4)n[nH]c2c1 [Example 1-8]
BEAS-2B pIC50 [1]: A (A represents a pIC50 value≥8 (IC50≤10 nM))

Lung to Plasma ratio Assay 4 [2]: A (A denotes a ratio>100)
Structure (SMILES): CCc1cc(O)c(F)cc1-c1ccc2c(-c3nc4c([nH]3)CCN(C[C@H]3COCCN3)C4)n[nH]c2c1 [Example 13, (S)-5-Ethyl-2-fluoro-4-(3-(5-(morpholin-3-ylmethyl)-4,5,6,7-tetrahydro-1H-imidazo[4,5-c]pyridin-2-yl)-1H-indazol-6-yl)phenol]

Structure (SMILES): CCc1cc(O)c(F)cc1-c1ccc2c(-c3nc4c([nH]3)CCN(CCC(C)C)C4)n[nH]c2c1 [Example C-2, reference compound]
lung concentration smaller than that of the corresponding compound of the invention by a factor [3]: 52
fold less potent than the corresponding compound of the invention in the BEAS-2B cellular assay [1]: 6 fold

Structure (SMILES): CCc1cc(O)c(F)cc1-c1ccc2c(-c3nc4c([nH]3)CCN(CCNC3(C#N)CC3)C4)n[nH]c2c1 [Example 3-1]
pSTAT6 inhibition in the pharmacodynamic assay [3]: exceptions

Lung to Plasma ratio Assay 4 [2]: A (A denotes a ratio>100)
Structure (SMILES): CCc1cc(O)c(F)cc1-c1ccc2c(-c3nc4c([nH]3)CCN(CCNC3CC(OC)C3)C4)n[nH]c2c1 (stereo not drawn) [Example 8, 5-Ethyl-2-fluoro-4-(3-(5-(2-((3-methoxycyclobutyl)amino)ethyl)-4,5,6,7-tetrahydro-1H-imidazo[4,5-c]pyridin-2-yl)-1H-indazol-6-yl)phenol]

Lung to Plasma ratio Assay 4 [2]: A (A denotes a ratio>100)
Structure (SMILES): CCc1cc(O)c(F)cc1-c1ccc2c(-c3nc4c([nH]3)CCN(C[C@@H]3CCCN3C)C4)n[nH]c2c1 [Example 11, (S)-5-ethyl-2-fluoro-4-(3-(5-((1-methylpyrrolidin-2-yl)methyl)-4,5,6,7-tetrahydro-1H-imidazo[4,5-c]pyridin-2-yl)-1H-indazol-6-yl)phenol]

Lung to Plasma ratio Assay 4 [2]: A (A denotes a ratio>100)
Structure (SMILES): CCc1cc(O)c(F)cc1-c1ccc2c(-c3nc4c([nH]3)CCN(C[C@@H]3COCCN3)C4)n[nH]c2c1 [Example 14, (R)-5-Ethyl-2-fluoro-4-(3-(5-(morpholin-3-ylmethyl)-4,5,6,7-tetrahydro-1H-imidazo[4,5-c]pyridin-2-yl)-1H-indazol-6-yl)phenol]

Lung to Plasma ratio Assay 4 [2]: A (A denotes a ratio>100)
Structure (SMILES): CCc1cc(O)c(F)cc1-c1ccc2c(-c3nc4c([nH]3)CCN(CCN(C)CC(C)C)C4)n[nH]c2c1 [Example 3-33]

Lung to Plasma ratio Assay 4 [2]: A (A denotes a ratio>100)
Structure (SMILES): CCc1cc(O)c(F)cc1-c1ccc2c(-c3nc4c([nH]3)CCN(CCN3CCC[C@@H]3C)C4)n[nH]c2c1 [Example 15, (S)-5-ethyl-2-fluoro-4-(3-(5-(2-(2-methylpyrrolidin-1-yl)ethyl)-4,5,6,7-tetrahydro-1H-imidazo[4,5-c]pyridin-2-yl)-1H-indazol-6-yl)phenol]

Lung to Plasma ratio Assay 4 [2]: A (A denotes a ratio>100)
Structure (SMILES): CCc1cc(O)c(F)cc1-c1ccc2c(-c3nc4c([nH]3)CCN(CC3CNC3)C4)n[nH]c2c1 [Example 14-7]

weight gain ([4]; humidity range of 5% to 90% relative humidity, 25° C): less than 0.12%
hygroscopicity ([4]; two cycles of sorption and desorption, 5% to 90% RH): non-hygroscopic
Structure (SMILES): CCc1cc(O)c(F)cc1-c1ccc2c(-c3nc4c([nH]3)CCN(C3CCN(C)CC3)C4)n[nH]c2c1 [crystalline hydrate, Crystalline hydrate of 5-ethyl-2-fluoro-4-(3-(5-(1-methylpiperidin-4-yl)-4,5,6,7-tetrahydro-1H-imidazo[4,5-c]pyridin-2-yl)-1H-indazol-6-yl)phenol]

Structure (SMILES): CCc1cc(O)c(F)cc1-c1ccc2c(-c3nc4c([nH]3)CCN(C3CN(C5CCS(=O)(=O)C5)C3)C4)n[nH]c2c1 (stereo not drawn) [Example 1-15]
pSTAT6 inhibition in the pharmacodynamic assay [3]: exceptions

Structure (SMILES): CCc1cc(O)c(F)cc1-c1ccc2c(-c3nc4c([nH]3)CCN(CCNC3CC(OC)C3)C4)n[nH]c2c1 (stereo not drawn) [Example 3-30]
BEAS-2B pIC50 [1]: A (A represents a pIC50 value≥8 (IC50≤10 nM))

Structure (SMILES): CCc1cc(O)c(F)cc1-c1ccc2c(-c3nc4c([nH]3)CCN(C3CCC(C)CC3)C4)n[nH]c2c1 (stereo not drawn) [Example C-4, reference compound]
lung concentration smaller than that of the corresponding compound of the invention by a factor [3]: 23
fold less potent than the corresponding compound of the invention in the BEAS-2B cellular assay [1]: 6 fold

Structure (SMILES): CCc1cc(O)c(F)cc1-c1ccc2c(-c3nc4c([nH]3)CCN(C3CC(C)C3)C4)n[nH]c2c1 (stereo not drawn) [Example C-1, 5-Ethyl-2-fluoro-4-(3-(5-(3-methylcyclobutyl)-4,5,6,7-tetrahydro-1H-imidazo[4,5-c]pyridin-2-yl)-1H-indazol-6-yl)phenol]
lung concentration smaller than that of the corresponding compound of the invention by a factor [3]: 36

Structure (SMILES): CCc1cc(O)c(F)cc1-c1ccc2c(-c3nc4c([nH]3)CCN(C3CN(CCOC)C3)C4)n[nH]c2c1 [Example 1-6]
BEAS-2B pIC50 [1]: A (A represents a pIC50 value≥8 (IC50≤10 nM))

Structure (SMILES): CCc1cc(O)c(F)cc1-c1ccc2c(-c3nc4c([nH]3)CCN(CC3CCCOC3)C4)n[nH]c2c1 (stereo not drawn) [Example C-3, reference compound]
lung concentration smaller than that of the corresponding compound of the invention by a factor [3]: 13
fold less potent than the corresponding compound of the invention in the BEAS-2B cellular assay [1]: 3 fold
